The nature of this series: LNP average particle size and polydispersity by dynamic light scattering. Conditions: sgRNA:mRNA 1:2; for Number mean (average particle size) / PDI (polydispersity index) / Z-avg (average particle size): LNP with 50% ionizable lipid, 3% C13 Ether (LNP #1, Compound 53: 3% PEG2K-DMG instead). Type of series: physicochemical. An outline of the steps: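 Z-average (intensity-based) and number-mean diameters plus PDI measured by DLS on LNP samples diluted in PBS. LNPs carried sgRNA and Cas9 mRNA at 1:2 w/w, with lipids at 50% ionizable lipid, 38% cholesterol, 9% DSPC and 3% PEG lipid (PEG2K-DMG, C13 Ether or C14 Ether).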

Setting [1] is: Table 3, Experiments 1-13, LNP 50% ionizable lipid, 38% cholesterol, 9% DSPC, 3% PEG2K-DMG.

Several values for one entry are separate records, joined by “and”; a condition that tells them apart may be missing. Equal entries are not always repeated.

Regarding `CCCCC/C=C\C/C=C\CCCCCCCC(=O)OCC(COC(=O)CCC(OCCCCCCCC)OCCCCCCCC)COC(=O)OCCCN(CC)CC` (centres unmarked) [Compound 53], for the setting “38% cholesterol, 9% DSPC”, the “Number mean (average particle size)” value is 71 nm, the “PDI (polydispersity index)” value came out at 0.04 and the “Z-avg (average particle size)” value was found to be 87 nm. The Z-avg under setting [1] was 94 nm and 89 nm and 96 nm and 92 nm and 90 nm and 91 nm and 95 nm. In addition, under “Table 5, PEG lipid C13 Ether”, the Number mean was 80 nm, the PDI turned out to be 0.02 and the Z-avg was 87 nm. Besides, under “Table 5, PEG lipid C14 Ether”, the Number mean stood at 90 nm, the PDI stood at 0.01 and the Z-avg amounted to 96 nm. Moreover, under “Table 5, PEG lipid PEG2K-DMG”, the Number mean turned out to be 82 nm, the PDI stood at 0.01 and the Z-avg stood at 87 nm.

For `CCCCC/C=C\C/C=C\CCCCCCCC(=O)OCC(COC(=O)CCC(OCCCCCCCC)OCCCCCCCC)COC(=O)NCCN(CC)CC` (centres unmarked) [Compound 54], under setting [1], the Number mean is reported as 80 nm, the PDI stood at 0.003 and the Z-avg is given as 98 nm.

For the compound `CCCCCCCCCOC(=O)CCCCCCCN(CCO)CCCCCCCC(=O)OC(CCCCCCCC)CCCCCCCC` [Compound 55], under setting [1], the Number mean is on record as 65 nm, the PDI stood at 0.05 and the Z-avg amounted to 77 nm.

Regarding `CCCCC/C=C\C/C=C\CCCCCCCC(=O)OCC(COC(=O)CCCC(=O)OC(CCCCCCCC)CCCCCCCC)COC(=O)OCCCN(CC)CC` (centres unmarked) [Compound 56], under setting [1], the Number mean was 74 nm and 80 nm; the PDI is 0.04 and 0.03; the Z-avg is 90 nm and 86 nm.

For `CCCCC/C=C\C/C=C\CCCCCCCC(=O)OCC(COC(=O)CCCCCC(=O)OC(CCCCCCCC)CCCCCCCC)COC(=O)OCCCN(CC)CC` (centres unmarked) [Compound 57], under setting [1], the Number mean was 75 nm and 80 nm; the Z-avg is 91 nm and 88 nm.

For `CCCCC/C=C\C/C=C\CCCCCCCC(=O)OCC(COC(=O)CCCC(=O)OC(CCCCCCCC)CCCCCCCC)COC(=O)NCCN(CC)CC` (centres unmarked) [Compound 58], under setting [1], the Number mean is 69 nm and 84 nm and 77 nm; the Z-avg was 91 nm and 92 nm and 94 nm.

Regarding `CCCCC/C=C\C/C=C\CCCCCCCC(=O)OCC(COC(=O)CCCCCC(=O)OC(CCCCCCCC)CCCCCCCC)COC(=O)NCCN(CC)CC` (centres unmarked) [Compound 59], under setting [1], the Number mean was 83 nm and 78 nm; the PDI was 0.01 and 0.02; the Z-avg was 100 nm and 95 nm.

Regarding `CCCCCCCCC(CCCCCCCC)OC(=O)CCCCCCC(=O)OCC(COC(=O)CCCCCCC(=O)OC(CCCCCCCC)CCCCCCCC)COC(=O)OCCCN(CC)CC` [Compound 60], the Number mean runs as follows: under setting [1], 78 nm; (Table 5, PEG lipid C13 Ether) 80 nm; (Table 5, PEG lipid C14 Ether) 83 nm; (Table 5, PEG lipid PEG2K-DMG) 77 nm. In addition, the PDI is 0.02 under setting [1]; 0.03 (Table 5, PEG lipid C13 Ether); 0.03 (Table 5, PEG lipid C14 Ether); 0.03 (Table 5, PEG lipid PEG2K-DMG). The Z-avg is reported as 87 nm under setting [1]; 87 nm (Table 5, PEG lipid C13 Ether); 95 nm (Table 5, PEG lipid C14 Ether); 89 nm (Table 5, PEG lipid PEG2K-DMG).

`CCCCCCCCC(CCCCCCCC)OC(=O)CCCCCCC(=O)OCC(COC(=O)CCCCCCC(=O)OC(CCCCCCCC)CCCCCCCC)COC(=O)NCCCN(CC)CC` [Compound 61]: under setting [1], the Number mean is reported as 39 nm, the PDI turned out to be 0.16 and the Z-avg is 74 nm.

Turning to `CCCCCCCCC(CCCCCCCC)CC(=O)OCCC(=O)OCC(COC(=O)CCCC(=O)OC(CCCCCCCC)CCCCCCCC)COC(=O)NCCN(CC)CC` (centres unmarked) [Compound 63, 3-(((2-(diethylamino)ethyl)carbamoyl)oxy)-2-(((3-((3-octylundecanoyl)oxy)propanoyl)oxy)methyl)propyl heptadecan-9-yl Glutarate], for the setting “Table 7, LNP with 3% C13 Ether”, the Number mean was 73 nm, the PDI worked out at 0.02 and the Z-avg is listed as 80 nm.

Turning to `CCCCCCCCC(CCCCCCCC)OC(=O)CCCCCC(=O)OCC(COC(=O)CCCCCC(=O)OC(CCCCCCCC)CCCCCCCC)COC(=O)OCCCN1CCCC1` [Compound 64, 7,7′-di(heptadecan-9-yl) O′1,O1-(2-((((3-(pyrrolidin-1-yl)propoxy)carbonyl)oxy)methyl)propane-1,3-diyl) di(heptanedioate)], for the setting “38% cholesterol, 9% DSPC”, the “Number mean (average particle size)” value was determined as 52 nm, the “PDI (polydispersity index)” value stood at 0.01 and the “Z-avg (average particle size)” value was 63 nm.

Consider `CCCCCCCCC(CCCCCCCC)OC(=O)CCCCCCC(=O)OCC(COC(=O)CCCCCCC(=O)OC(CCCCCCCC)CCCCCCCC)COC(=O)OCCCN1CCCC1` [Compound 65, 8,8′-di(heptadecan-9-yl) O′1,O1-(2-((((3-(pyrrolidin-1-yl)propoxy)carbonyl)oxy)methyl)propane-1,3-diyl) di(octanedioate)], for which, under “38% cholesterol, 9% DSPC”, the “Number mean (average particle size)” value was found to be 62 nm, the “PDI (polydispersity index)” value was determined as 0.01 and the “Z-avg (average particle size)” value turned out to be 74 nm.

Consider `CCCCCCCCC(CCCCCCCC)OC(=O)CCCCCCC(=O)OCC(CC)(COC(=O)CCCCCCC(=O)OC(CCCCCCCC)CCCCCCCC)COC(=O)NCCN(CC)CC` [Compound 66, O′1,O1-(2-((((2-(diethylamino)ethyl)carbamoyl)oxy)methyl)-2-ethylpropane-1,3-diyl) 8,8′-di(heptadecan-9-yl) di(octanedioate)], for which, for the setting “38% cholesterol, 9% DSPC”, the “Number mean (average particle size)” value turned out to be 64 nm, the “PDI (polydispersity index)” value is listed as 0.01 and the “Z-avg (average particle size)” value is listed as 78 nm.

Regarding `CCCCCCCCC(CCCCCCCC)OC(=O)CCCCCCC(=O)OCC(CC)(COC(=O)CCCCCCC(=O)OC(CCCCCCCC)CCCCCCCC)COC(=O)OCCCN1CCCC1` [Compound 67, O′1,O1-(2-ethyl-2-((((3-(pyrrolidin-1-yl)propoxy)carbonyl)oxy)methyl)propane-1,3-diyl) 8,8′-di(heptadecan-9-yl) di(octanedioate)], under “38% cholesterol, 9% DSPC”, the “Number mean (average particle size)” value was 53 nm, the “PDI (polydispersity index)” value stood at 0.03 and the “Z-avg (average particle size)” value is recorded as 65 nm.

In the case of `CCCCCCCCC(CCCCCCCC)OC(=O)CCCCC(=O)OCC(COC(=O)CCCCC(=O)OC(CCCCCCCC)CCCCCCCC)COC(=O)NCCN(CC)CC` [Compound 68, O,O′-(2-((((2-(diethylamino)ethyl)carbamoyl)oxy)methyl)propane-1,3-diyl) di(heptadecan-9-yl) diadipate], under “38% cholesterol, 9% DSPC”, the “Number mean (average particle size)” value came out at 63 nm, the “PDI (polydispersity index)” value turned out to be 0.01 and the “Z-avg (average particle size)” value was 75 nm.

For the origin of these results see patent publication US20260337153A1, “IONIZABLE AMINE LIPIDS” (Intellia Therapeutics, Inc., priority 2023, published 2026).
